# Measurements published in article doi:10.1101/2025.03.03.641193, “Trihydroxybenzaldoximes are redox cycling inhibitors of ThDP-dependent DXP synthase” (bioRxiv, 2025).
# Like-named read-outs stand apart in the source and are kept apart here.
# Legend:
# R478A DXPS = biological target: T1, R478A DXPS (Escherichia coli, UniProt P77488, R478A); conditions: EcR478A vs WT; cited from earlier work
# T1 construct: made in house
# EcDXPS [1] = biological target: T2, EcDXPS (Escherichia coli, UniProt P77488); conditions: cited from earlier work; for inhibitory activity against DXPS: source not stated at the place, probably ref 32
# T2 construct: made in house
# EcDXPS [2] = biological target: T2, EcDXPS; test: DXPS-IspC coupled assay, aerobic, WT EcDXPS; assay type: biochemical, E. coli; conditions: for MOI varying D-GAP / MOI varying pyruvate: WT EcDXPS, aerobic
# Experimental: Inhibitory activity of compounds against DXPS were monitored via a continuous spectrophotometric coupled assay with DXPS and IspC as previously described.[41],[42] Briefly, Reaction mixtures containing HEPES (100 mM, pH 8.0), MgCl2 (2 mM), NaCl (5 mM), ThDP (1 mM), BSA (1 mg/mL), DXPS (125–500 nM), IspC (1.7 μM), NADPH (160 μM), DMSO (5%, v/v), and inhibitor (0–200 μM) were preincubated at 25 °C (or chamber temperature 25–30 °C) for 5 min. Enzymatic reactions were initiated via the addition of 20 μL of a 10x substrate mix for a final well volume of 200 μL. Reactions were performed in triplicate unless otherwise noted. See the following sections for details and modifications.
# When varying pyruvate (0–500 μM), GAP was maintained at 50 μM (3 mM for R478A). When varying GAP (0–500 μM), pyruvate was maintained at 500 μM. The following [DXPS] were used when varying 1: WT EcDXPS, R478A, H431A, D427A (200 nM), R99A (500 nM), WT DrDXPS, WT PaDXPS (150 nM). […] Reactions were incubated and initiated as described above. Immediately following initiation, NADPH depletion was monitored at 340 nm at 25 °C for 7–10 min with a 14–20 second time interval. Initial velocities of DXP formation were determined from the linear portion of the NADPH decay. […] Initial velocities were plotted vs. substrate concentration, and the data were fit to equation 1 (mixed model), 2 (competitive), or 3 (uncompetitive) based on the calculated α value and goodness of fit in GraphPad Prism. Reported standard errors of the mean for Kis are calculated from three replicates.
# DXPS = biological target: T3, DXPS (Escherichia coli, UniProt P77488); test: NMR detection of chemical reduction by DXPS and substrates (LR 1H-15N HSQC); assay type: biochemical; conditions: 500 μM
# T3 construct: made in house
# Experimental: In order to determine if 1 is reduced by the C2-α-carbanion on DXPS, we prepared the ^15N-labeled analog 8 aerobically in Tris pH 8 (to bias the oxidized form, Fig S7) and then transferred this mixture to the anaerobic chamber to minimize O2-mediated re-oxidation of 8 following reduction by the C2-α-carbanion (Fig S18). […] Reactions containing 8 (500 μM) were then initiated by the addition of DXPS (1 μM) and ^13C-labeled pyruvate (2 mM), in the presence or absence of 500 μM GAP (Fig 8B–E, S22–23). Samples were then quenched by boiling and vortexing before being transferred into degassed NMR tubes and sealed with rubber septa and parafilm to preclude reoxygenation. […] Further evidence supporting Model 2 in which 1 induces LThDP decarboxylation and promotes substrate wasting, was obtained by detection of products using 1D ^1H-NMR which selectively detects H{^13C} and H3{^13C} spectra via a proton multiplicity filter (Fig 8, S23–24). […] Production of DXP relative to acetate in the presence of D-GAP was reduced in the presence of 8 (Fig S24), consistent with a mechanism in which 1 competes with GAP as an acceptor and in agreement with the previously characterized competitive mechanism of inhibition with respect to D-GAP.[32]
# Reaction buffer (50 mM Tris pH 8, 2 mM MgCl2, 100 mM NaCl, 1 mM ThDP, 10% D2O) was prepared aerobically. Oxime 8 (500 μM) was added, and the mixture was incubated at 4 °C for 30 min. Reaction mixtures were then brought into the anaerobic chamber and allowed to deoxygenate ~2 hrs. Reactions were initiated by addition of 1 μM DXPS with 2 mM sodium pyruvate-^13C3 or 2 mM sodium pyruvate-^13C3 and 500 μM GAP. Reaction mixtures were incubated at 25 °C for 1 hr. Reactions were quenched by boiling for 5 min at 95 °C followed by vortexing for 15 seconds. The quenched mixtures were transferred to labeled NMR tubes which were sealed with rubber septa and parafilm prior to removal from the chamber to exclude oxygen once removed from the chamber. 2D Multiple Bond Long Range (LR) ^1H-^15N-HSQC and 1D ^1H detected H{^13C} and H3{^13C} spectra via a proton multiplicity filter which selects for ^13C nuclei attached to an odd number of protons were acquired on a Bruker Avance NEO 600 MHz spectrometer equipped with a TCI cryogenic probe equipped with z-gradients with a cryo-cooled ^13C preamplifier, resulting in high sensitivity for ^13C detection. Spectra were acquired at 600 MHz (^1H), 150 MHz (^13C), and 61 MHz (^15N) at 25 °C. Parameters for various categories of spectra are as follows: (LR ^1H-^15N HSQC): 16 scans and 150 ms acquisition time (t2) per FID and a ^1H spectral width of 15.1376 ppm; since the chemical shifts of N^R (δ 335) and N^O (δ 374) are separated by ~ 40 ppm, data collection times were optimized by positioning the ^15N carrier at 354 ppm and using an ^15N spectral width of 25 ppm and an acquisition time of 13 ms along ^15N (t1); with a 1.5 s relaxation delay between successive scans, the total data collection period per 2D spectrum was 20 minutes. ^1H detected H{^13C} and H3{^13C} filtered 1D spectra: 200 ms acquisition time/FID, and a 5s relaxation day between successive scans, 1.5 minutes per spectrum. Controls were also prepared in which reactions were initiated by addition of 1 μM DXPS with no substrates, as well as 2 mM ^13C-labeled pyruvate + 500 μM GAP with DXPS dialysis buffer in place of enzyme. A “mixed” redox state control of 1 (500 μM) was prepared aerobically in 50 mM HEPES pH 8 with 10% D2O.
compound,measurement,setting,value
"CC(=O)P(=O)(O)OCCc1cn([C@H](Cc2ccccc2)C(=O)O)nn1 [D-PheTrAP, D-phenylalanine triazol acetyl phosphonate]",fold loss in potency on EcR478A,R478A DXPS,> 30 fold
CO/N=C/c1cc(O)c(O)cc1O [compound 2],MOI varying pyruvate,EcDXPS [1]; footnote a,Noncompetitive
same,Ki,EcDXPS [1]; vary pyruvate,15.6 ± 0.7 µM
"N/N=C/c1cc(O)c(O)cc1O [compound 3, (E,Z)-5-(hydrazineylidenemethyl)benzene-1,2,4-triol]",Ki,EcDXPS [2],17.5 ± 0.6 µM
same,MOI varying D-GAP,EcDXPS [2],competitive
same,MOI varying pyruvate,EcDXPS [2],uncompetitive
CN/N=C/c1cc(O)c(O)cc1O [compound 4],MOI varying D-GAP,EcDXPS [2],mixed
same,MOI varying pyruvate,EcDXPS [2],uncompetitive
same,potency against DXPS,EcDXPS [1]; determined in the presence of ascorbate,lacking measurable potency
CO/N=C/c1ccc(O)c(O)c1 [compound 5],inhibitory activity against DXPS,EcDXPS [1],lack of potency
CO/N=C/c1cc(O)ccc1O [compound 6],inhibitory activity against DXPS,EcDXPS [1],lack of potency
"O/[15N]=C/c1cc(O)c(O)cc1O [compound 8, ^15N-labeled (E)-2,4,5-Trihydroxybenzaldehyde oxime]",redox state after incubation (LR 1H-15N HSQC),"DXPS; DXPS 1 μM + pyruvate 2 mM + D-GAP 500 μM, anaerobic",readily reduced
same,redox state after incubation (LR 1H-15N HSQC),"DXPS; DXPS 1 μM + pyruvate 2 mM, no GAP, anaerobic",fully reduced
same,redox state after incubation (LR 1H-15N HSQC),"DXPS; DXPS 1 μM, no substrates",maintained mostly in the oxidized form
same,redox state after incubation (LR 1H-15N HSQC),DXPS; ascorbate 5 mM control,Total reduction
same,redox state after incubation (LR 1H-15N HSQC),"DXPS; pyruvate 2 mM + D-GAP 500 μM, no DXPS",Some reduction
